Measurements published in US9464064B2, “HCV helicase inhibitors and methods of use thereof” (University of Kansas, priority 2011, dated 2016).
Residues, ends and D or L forms follow the SMILES beside them. *: point of attachment. Cbz = O=C(OCc1ccccc1)*; CH2Cl = ClC*

The compounds below were run against T1, HCV NS3 helicase NS3h_1b(con1) (Hepatitis C virus genotype 1b, UniProt Q9WMX2) (assay: MBHA screen of NCI mechanistic set library at 20 μM (percent inhibition, compound interference)). Settings: compounds at 20 μM, MBHA with DNA substrate; assay interference calculated with Equation 2.
T1 construct: truncated C-terminally His-tagged NS3 proteins lacking the N-terminal protease, called NS3h; His-tag (C); made in house
T1 sequence (Q9WMX2 1192-1657): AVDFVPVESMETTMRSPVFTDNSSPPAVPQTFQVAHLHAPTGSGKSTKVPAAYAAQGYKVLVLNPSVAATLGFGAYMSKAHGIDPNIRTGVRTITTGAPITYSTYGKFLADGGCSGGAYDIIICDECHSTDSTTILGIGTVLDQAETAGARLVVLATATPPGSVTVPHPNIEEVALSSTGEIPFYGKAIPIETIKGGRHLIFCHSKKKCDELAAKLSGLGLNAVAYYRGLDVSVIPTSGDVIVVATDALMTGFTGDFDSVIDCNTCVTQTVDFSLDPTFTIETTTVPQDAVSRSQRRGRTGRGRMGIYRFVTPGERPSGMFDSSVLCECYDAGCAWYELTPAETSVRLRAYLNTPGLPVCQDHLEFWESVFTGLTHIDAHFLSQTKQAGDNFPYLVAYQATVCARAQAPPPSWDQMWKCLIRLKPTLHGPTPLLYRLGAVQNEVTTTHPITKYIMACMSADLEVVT
Type: biochemical
How it was run: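 Molecular beacon-based DNA unwinding assay; compounds screened at 20 μM in triplicate, with DMSO-only negative and 500 nM dT20 positive controls. Fluorescence (ex 643/em 670 nm) was read before and 30 min after adding ATP to 1 mM. Percent inhibition came from the change relative to DMSO controls; interference from pre-ATP fluorescence versus DMSO controls.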

SMILES | Int.* (Ratio) (Interference)
Cc1c2cnccc2c(C)c2c1c1ccccc1n2CCOC(=O)c1ccccc1 [Compound 163443] | 0.88
COC(=O)[C@@]12OC[C@]34[C@H]([C@@H](O)[C@@H]1O)[C@@]1(C)CC(=O)C(O)=C(C)[C@@H]1C[C@H]3OC(=O)[C@H](OC(=O)/C=C(\C)C(C)C)[C@@H]24 [Compound 165563] | 0.95
CCSC(=O)N1c2ccc(OC)cc2C=CC1C#N (stereo not shown) [Compound 165897] | 1.20
Cc1cc(N)c2ccccc2[n+]1CCCCCCCCCC[n+]1c(C)cc(N)c2ccccc21.[Cl-].[Cl-] [Compound 166454] | 0.18
CSc1ccc(NC(=O)CCl)cc1 [Compound 166464] | 1.00
CC1C(Oc2c(-c3ccc(O)c(O)c3)oc3c(O)cc(O)cc3c2=O)OC(O)C(O)C1O (stereo not shown) [Compound 167410] | 0.87
CCOC(=O)[C@H](CC(C)C)NC(=O)C(Cc1ccc(N(CCCl)CCCl)cc1)NC(C)=O (stereo partly shown) [Compound 167780] | 1.00
CC(=O)OCCN1c2ccccc2Sc2cnccc21 [Compound 168221] | 0.96
Cc1cc2nc(C=C(C(F)(F)F)C(F)(F)F)oc2cc1C [Compound 168415] | 0.95
CCC[CH2][Pb]([Cl])([CH2]CCC)[CH2]CCC [Compound 168597] | 0.98
COC(=O)C1(C)CCCC2(C)c3cc(OC)ccc3C(=O)C(Br)C12 (stereo not shown) [Compound 169600] | 0.90
OCCNCCN1CCN(CCCN2c3ccccc3Sc3ccc(C(F)(F)F)cc32)CC1 [Compound 169676] | 0.87
CC(C)C[C@H]1C(=O)N2CCC[C@H]2[C@]2(O)O[C@](NC(=O)[C@@H]3C=C4c5cccc6[nH]c(Br)c(c56)C[C@H]4N(C)C3)(C(C)C)C(=O)N12.CS(=O)(=O)O [Compound 169774] | 0.92
C[C@H](CN1CC(=O)NC(=O)C1)N1CC(=O)NC(=O)C1 [Compound 169779] | 1.12
O=c1[nH]c2ccccc2n1C1CCN(CCCC(c2ccc(F)cc2)c2ccc(F)cc2)CC1 [Compound 170984] | 0.95
COC(=O)[C@@]12OC[C@]34[C@H]([C@@H](O)[C@@H]1O)[C@@]1(C)CC(=O)C(O)=C(C)[C@@H]1C[C@H]3OC(=O)[C@H](OC(=O)C=C(C)C)[C@@H]24 [Compound 172924] | 1.01
CC(=O)[O][Pb]([O]C(C)=O)([c]1ccccc1)[c]1ccccc1 [Compound 173046] | 0.93
CC(C)CC(NC(=O)OCc1ccccc1)C(=O)NC(Cc1ccccc1)C(=O)CCl (stereo not drawn) [Compound 173904] (Cbz-Leu-Phe-CH2Cl; configuration not given here) | 1.09
CC(=O)NC(CC(C)C)C(=O)NC(Cc1ccccc1)C(=O)CCl (stereo not drawn) [Compound 173905] (Ac-Leu-Phe-CH2Cl; configuration not given here) | 1.11
CN(Cc1cnc2nc(N)nc(N)c2n1)c1ccc(C(=O)NC(CCC(=O)O)C(=O)O)c2ccccc12 (stereo not shown) [Compound 174121] | 0.91
[Cl][Hg][c]1ccc2ccccc2c1 [Compound 174163] | 1.00
CC(=O)[O][Hg][c]1c(C)c(C)c(C)c(C)c1C [Compound 174176] | 1.04
CCCC(=O)[O-].[Na+] [Compound 174280] | 0.90

Same assay, conditions: compounds at 20 μM, MBHA with DNA substrate; calculated from Equation 1

SMILES | Inh. (%) (Inhibition)
Cc1c2cnccc2c(C)c2c1c1ccccc1n2CCOC(=O)c1ccccc1 [Compound 163443] | −7.6
COC(=O)[C@@]12OC[C@]34[C@H]([C@@H](O)[C@@H]1O)[C@@]1(C)CC(=O)C(O)=C(C)[C@@H]1C[C@H]3OC(=O)[C@H](OC(=O)/C=C(\C)C(C)C)[C@@H]24 [Compound 165563] | 14.6
CCSC(=O)N1c2ccc(OC)cc2C=CC1C#N (stereo not shown) [Compound 165897] | −14.2
Cc1cc(N)c2ccccc2[n+]1CCCCCCCCCC[n+]1c(C)cc(N)c2ccccc21.[Cl-].[Cl-] [Compound 166454] | 60.4
CSc1ccc(NC(=O)CCl)cc1 [Compound 166464] | 3.7
CC1C(Oc2c(-c3ccc(O)c(O)c3)oc3c(O)cc(O)cc3c2=O)OC(O)C(O)C1O (stereo not shown) [Compound 167410] | −13.8
CCOC(=O)[C@H](CC(C)C)NC(=O)C(Cc1ccc(N(CCCl)CCCl)cc1)NC(C)=O (stereo partly shown) [Compound 167780] | 22.8
CC(=O)OCCN1c2ccccc2Sc2cnccc21 [Compound 168221] | −12.6
Cc1cc2nc(C=C(C(F)(F)F)C(F)(F)F)oc2cc1C [Compound 168415] | 13.3
CCC[CH2][Pb]([Cl])([CH2]CCC)[CH2]CCC [Compound 168597] | 2.6
COC(=O)C1(C)CCCC2(C)c3cc(OC)ccc3C(=O)C(Br)C12 (stereo not shown) [Compound 169600] | 0.0
OCCNCCN1CCN(CCCN2c3ccccc3Sc3ccc(C(F)(F)F)cc32)CC1 [Compound 169676] | 18.3
CC(C)C[C@H]1C(=O)N2CCC[C@H]2[C@]2(O)O[C@](NC(=O)[C@@H]3C=C4c5cccc6[nH]c(Br)c(c56)C[C@H]4N(C)C3)(C(C)C)C(=O)N12.CS(=O)(=O)O [Compound 169774] | −15.6
C[C@H](CN1CC(=O)NC(=O)C1)N1CC(=O)NC(=O)C1 [Compound 169779] | −9.4
O=c1[nH]c2ccccc2n1C1CCN(CCCC(c2ccc(F)cc2)c2ccc(F)cc2)CC1 [Compound 170984] | 4.7
COC(=O)[C@@]12OC[C@]34[C@H]([C@@H](O)[C@@H]1O)[C@@]1(C)CC(=O)C(O)=C(C)[C@@H]1C[C@H]3OC(=O)[C@H](OC(=O)C=C(C)C)[C@@H]24 [Compound 172924] | 13.3
CC(=O)[O][Pb]([O]C(C)=O)([c]1ccccc1)[c]1ccccc1 [Compound 173046] | −12.2
CC(C)CC(NC(=O)OCc1ccccc1)C(=O)NC(Cc1ccccc1)C(=O)CCl (stereo not drawn) [Compound 173904] (Cbz-Leu-Phe-CH2Cl; configuration not given here) | 1.4
CC(=O)NC(CC(C)C)C(=O)NC(Cc1ccccc1)C(=O)CCl (stereo not drawn) [Compound 173905] (Ac-Leu-Phe-CH2Cl; configuration not given here) | −12.0
CN(Cc1cnc2nc(N)nc(N)c2n1)c1ccc(C(=O)NC(CCC(=O)O)C(=O)O)c2ccccc12 (stereo not shown) [Compound 174121] | −13.1
[Cl][Hg][c]1ccc2ccccc2c1 [Compound 174163] | −18.5
CC(=O)[O][Hg][c]1c(C)c(C)c(C)c(C)c1C [Compound 174176] | 6.0
CCCC(=O)[O-].[Na+] [Compound 174280] | 1.1
